In patent US20230383291A1, “PEPTIDE-BASED TRANSDUCTION OF NON-ANIONIC POLYNUCLEOTIDE ANALOGS FOR GENE EXPRESSION MODULATION” (FELDAN BIO INC., priority 2020, published 2023):

Tests used:
Gli1 protein [1] = assay: Gli1 protein level in cells isolated from treated tumor explants, cytofluorometry; type: cell-based; settings: PMO-Gli1 and shuttle agent combination; between 24 and 48 hours of incubation; data not shown
Description: Freshly obtained basal cell carcinoma-type tumors following Mohs-type surgery were incubated in complete DMEM culture medium on a wire mesh with the surface exposed to air. In order to allow the cargo to be delivered to the epidermis and dermis, the tumors were washed with PBS 1× and the stratum corneum of the explants is permeabilized with a Pantec PLEASE™ laser according to the following parameters: pore density 2.5%, 1 pulse/pore, Array Size 14 mm, depth pores 20 μm (4.9 J/cm^2, 0.8 W). The explants were then divided into two halves, one half was treated with a solution of PBS 1×-2% hydroxyethyl cellulose containing 25 μM of PMO-Gli1-Cy5 and 40 μM of FSD250, while the other half was treated with the same solution containing PMO-Gli1-cy5 only (without shuttle agent; control). […] 10 μm sections were transferred to coverslips and treated with ProLong™ Diamond for fluorescence microscopy analysis. […] The levels of Gli1 protein were measured by cytofluorometry at different times of culture following the fixation and labeling of the isolated dermal and epidermal cells with an anti Gli1-Alexa 647 antibody. Between 24 and 48 hours of incubation following the treatment of the tumors, the level of the Gli1 protein decreased considerably (50%) in cultured cells which were treated with the PMO-Gli1 and shuttle agent combination, measured by flow cytometry (data not shown).

Gli1 protein [2] = assay: Gli1 knock-down in DU145 cells, Western blot; type: cell-based, Human; settings: 6 μM PMO
Description: DU145 cells were trypsinized and plated (500 000 cells/well) in a 24 well-dish the day prior to the experiment. […] Cells were washed once with PBS and delivery mixes were added on cells for five minutes. Then, 2 mL of RPMI-1640 containing 10% FBS was added to the mix and removed. Untreated cells were incubated with RPMI-1640 only. Cells were incubated in fresh RPMI-1640 containing 10% FBS. Forty height hours later, medium was removed and cells were washed once with PBS prior to trypsinization. Cells were harvested, collected by centrifugation, washed, and resuspended with PBS. Then, PMO-FITC positive and PMO-FITC negative cells were sorted and collected by virtue of FACS (BD FACS Aria Fusion). FITC-positive and FITC-negative cell samples were collected by centrifugation and resuspended in 50 μL protein extraction RIPA buffer (150 mM NaCl, 1% Nonidet™ P-40, 0.1% SDS, 0.5% Sodium deoxycholate, 25 mM Tris). Total protein concentrations were measured with a BCA protein assay kit. For all conditions, 10 μg of proteins were prepared at a final volume of 40 μL with 4× Laemmeli and RIPA buffer. Protein samples were then heated at 90° C. and separated through an 8% SDS-PAGE gel. Proteins were then transferred over night (25 volts) onto a […] PVDF membrane. Membranes were blocked using a 5% bovine serum albumin, Tris Buffer Saline, 0.1% Tween® 20 solution (5% BSA/TBS-T) for an hour. After blocking, the membrane was incubated for an hour with a 5% BSA/TBS-T solution containing anti alpha-Actinin (D6F6) primary antibody at a 1:1000. Alpha-Actinin protein present in the cell lysates served as loading control. Subsequently, the membranes were incubated over night with a 5% BSA/TBS-T solution containing anti-Gli1 primary antibody diluted 1:500. The membrane was then subjected to a 1-hour incubation at 1:5000 dilution of HRP-conjugated goat anti-rabbit secondary antibody 5% BSA/TBS-T solution. Chemiluminescence detection was performed using Clarity™ Western ECL Substrate and a ChemiDoc™ XRS apparatus. Gli1 and Alpha-Actinin densitometry was assessed using ImageJ™ software. […]

Gli1 protein [3] = assay: Gli1 knockdown in RH-30 cells, Western blot; type: cell-based, Human; settings: 6 μM cargo with 5 μM FSD250, 2 minutes, 24 h
Description: A Gli1 knock-down experiment was performed generally as described in Example 6 to compare shuttle agent-mediated transduction of an unmodified PMO versus a commercially available self-internalizing Vivo-Morpholino (VivoPMO), which is a PMO chemically modified with a terminal octa-guanidinium dendrimer to facilitate entry into cells. Briefly, RH-30 cells were contacted with a delivery mix of 6 μM of cargo (either PMO-Gli1 or VivoPMO-Gli1) in the presence or absence of 5 μM of the synthetic peptide shuttle agent FSD250 for 2 minutes in RPMI. Cells were then washed, incubated in complete medium and then collected for Gli1 protein expression analysis by Western blot after 24 h using an anti-Gli1 polyclonal Ab (Abcam ab273018, 150 kDa), an anti-GAPDH Ab (Abcam ab181602, 37 kDa), and anti-Rabbit HRP secondary Ab. […] Indeed, this is consistent with the manufacturer's recommended incubation time of 2-4 hours for VivoPMOs to achieve sufficient self-internalization via endocytosis. Regardless, the results in FIG. 10 highlight the vast difference in internalization kinetics between the slow endocytosis-dependent intracellular delivery of VivoPMOs versus the rapid and efficient PMO transduction observed using synthetic peptide shuttle agents.
Four different PMOs were designed and synthesized targeting different regions proximal to the region or start codon of the human Gli1 gene. […]

PMO-Gli1: antisense PMO molecule designed to knock-down expression of the Gli1 protein; off-target control in the GFPd assay (antisense GTCATCGAGTTGAACATGGCGTCTC; all phosphorodiamidate morpholino (PMO))
decrease of the level of the Gli1 protein (Gli1 protein [1]): 50% | Gli1 protein expression (Gli1 protein [2]; 3.75 μM FSD250, 48 hours): knocked-down | Gli1 protein expression (Gli1 protein [2]; FITC+ cells vs FITC− cells, 5 μM FSD250, 48 hours): knocked-down | Knockdown of Gli1 protein (Gli1 protein [3]): Knockdown of Gli1 protein
